This data set in a line: Solubility in distilled water for injection drug. The format is physicochemical. Conditions: Compound 3 alone, read-out: Solubility (as Compound 3).

Converted amounts (≈) assume the structure as drawn.

Data on one compound can be found in patent publication US5116949A, “Benzoyl urea compound-albumin complex” (Ishihara Sangyo Kaisha Ltd., priority 1988, dated 1992).

As usually defined, the solubility is the dissolved amount per volume that the medium holds. For `O=C(NC(=O)c1ccccc1[N+](=O)[O-])Nc1ccc(Oc2ncc(Br)cn2)c(Cl)c1` [Compound 3], the solubility came to 0.024 µg/mL (≈ 0.0487 µM).
